Experiments:
UACC-257 = assay: Growth inhibition of human UACC257 cells assessed as cell growth at 0.01 uM incubated for 48 hrs by sulforhodamine B assay relative to control; assay type: functional; details: UACC-257, 48 h, read-out: Activity
PC-3 = assay: Growth inhibition of human PC3 cells incubated for 48 hrs by sulforhodamine B assay; assay type: functional, cell-based; details: PC-3, 48 h
OVCAR-3 = assay: Growth inhibition of human OVCAR3 cells incubated for 48 hrs by sulforhodamine B assay; assay type: functional, cell-based; details: OVCAR-3, 48 h
SF-539 = assay: Growth inhibition of human SF539 cells assessed as cell growth at 1 uM incubated for 48 hrs by sulforhodamine B assay relative to control; assay type: functional; details: SF-539, 48 h, read-out: Activity
M14 = assay: Growth inhibition of human M14 cells incubated for 48 hrs by sulforhodamine B assay; assay type: functional, cell-based; details: M14, 48 h
MOLT-4 = assay: Growth inhibition of human MOLT4 cells assessed as cell growth at 1 uM incubated for 48 hrs by sulforhodamine B assay relative to control; assay type: functional; details: MOLT-4, 48 h, read-out: Activity
CCRF-CEM = assay: Growth inhibition of human CCRF-CEM cells assessed as cell growth at 100 uM incubated for 48 hrs by sulforhodamine B assay relative to control; assay type: functional; details: read-out: Activity
HL-60(TB) = assay: Growth inhibition of human HL-60(TB) cells assessed as cell growth at 0.1 uM incubated for 48 hrs by sulforhodamine B assay relative to control; assay type: functional; details: HL-60, 48 h, read-out: Activity
HCC 2998 = assay: Growth inhibition of human HCC2998 cells assessed as cell growth at 100 uM incubated for 48 hrs by sulforhodamine B assay relative to control; assay type: functional; details: HCC 2998, 48 h, read-out: Activity
RXF 393 [1] = assay: Growth inhibition of human RXF393 cells assessed as cell growth at 1 uM incubated for 48 hrs by sulforhodamine B assay relative to control; assay type: functional; details: RXF 393, 48 h, read-out: Activity
SR = assay: Growth inhibition of human SR cells incubated for 48 hrs by sulforhodamine B assay; assay type: functional, cell-based
786-0 [2] = assay: Growth inhibition of human 786-0 cells assessed as cell growth at 0.01 uM incubated for 48 hrs by sulforhodamine B assay relative to control; assay type: functional; details: 786-0, 48 h, read-out: Activity
786-0 [3] = assay: Growth inhibition of human 786-0 cells incubated for 48 hrs by sulforhodamine B assay; assay type: functional, cell-based; details: 786-0, 48 h
NCI-H460 = assay: Growth inhibition of human NCI-H460 cells incubated for 48 hrs by sulforhodamine B assay; assay type: functional, cell-based; details: NCI-H460, 48 h
MDA-MB-468 = assay: Growth inhibition of human MDA-MB-468 cells assessed as cell growth at 0.01 uM incubated for 48 hrs by sulforhodamine B assay relative to control; assay type: functional; details: MDA-MB-468, 48 h, read-out: Activity
BT-549 [4] = assay: Growth inhibition of human BT549 cells assessed as cell growth at 0.01 uM incubated for 48 hrs by sulforhodamine B assay relative to control; assay type: functional; details: BT-549, 48 h, read-out: Activity
SW-620 = assay: Growth inhibition of human SW620 cells assessed as cell growth at 0.01 uM incubated for 48 hrs by sulforhodamine B assay relative to control; assay type: functional; details: SW-620, 48 h, read-out: Activity
MCF7 = assay: Growth inhibition of human MCF7 cells assessed as cell growth at 1 uM incubated for 48 hrs by sulforhodamine B assay relative to control; assay type: functional; details: MCF7, 48 h, read-out: Activity
A498 [5] = assay: Growth inhibition of human A498 cells incubated for 48 hrs by sulforhodamine B assay; assay type: functional, cell-based; details: A498, 48 h
ACHN = assay: Growth inhibition of human ACHN cells assessed as cell growth at 1 uM incubated for 48 hrs by sulforhodamine B assay relative to control; assay type: functional; details: read-out: Activity
A498 [6] = assay: Growth inhibition of human A498 cells assessed as cell growth at 0.1 uM incubated for 48 hrs by sulforhodamine B assay relative to control; assay type: functional; details: A498, 48 h, read-out: Activity
HCT-116 = assay: Growth inhibition of human HCT116 cells assessed as cell growth at 1 uM incubated for 48 hrs by sulforhodamine B assay relative to control; assay type: functional; details: HCT-116, 48 h, read-out: Activity
IGROV-1 = assay: Growth inhibition of human IGROV1 cells incubated for 48 hrs by sulforhodamine B assay; assay type: functional, cell-based; details: IGROV-1, 48 h
RXF 393 [7] = assay: Growth inhibition of human RXF393 cells assessed as cell growth at 0.1 uM incubated for 48 hrs by sulforhodamine B assay relative to control; assay type: functional; details: RXF 393, 48 h, read-out: Activity
BT-549 [8] = assay: Growth inhibition of human BT549 cells assessed as cell growth at 1 uM incubated for 48 hrs by sulforhodamine B assay relative to control; assay type: functional; details: BT-549, 48 h, read-out: Activity
SN12C = assay: Growth inhibition of human SN12C cells assessed as cell growth at 100 uM incubated for 48 hrs by sulforhodamine B assay relative to control; assay type: functional; details: read-out: Activity
NCI/ADR-RES = assay: Growth inhibition of human NCI/ADR-RES cells incubated for 48 hrs by sulforhodamine B assay; assay type: functional, cell-based
RPMI-8226 = assay: Growth inhibition of human RPMI8226 cells assessed as cell growth at 1 uM incubated for 48 hrs by sulforhodamine B assay relative to control; assay type: functional; details: RPMI-8226, 48 h, read-out: Activity
[9] = read-out: LC50 (the source's name)
[10] = read-out: pLC50 (the source's name) (converted)

With COc1cc(Cl)cc(-c2nn(-c3cccc(NC(=O)Nc4cc(C(F)(F)F)cc(C(F)(F)F)c4)c3)cc2-c2ccncc2)c1 the growth at 0.01 µM (UACC-257) was 96%, the IC50 (PC-3) was 300 nM and the GI50 (PC-3; read-out: GI50) was 297 nM. The CC50 (PC-3; [9]) was greater than 100000 nM, the TGI (PC-3; read-out: TGI) was 1630 nM and the GI50 (PC-3; read-out: pGI50 (converted)) was 295 nM. For the same compound, the CC50 (PC-3; [10]) was greater than 100000 nM, the TGI (PC-3; read-out: pTGI (converted)) was 1620 nM and the IC50 (OVCAR-3) was 330 nM. The GI50 (OVCAR-3; read-out: GI50) was 334 nM, the TGI (OVCAR-3; read-out: TGI) was 1410 nM and the GI50 (OVCAR-3; read-out: pGI50 (converted)) was 331 nM. It also gave a CC50 (OVCAR-3; [10]) of 34700 nM, a TGI (OVCAR-3; read-out: pTGI (converted)) of 1410 nM and a growth at 1 µM (SF-539) of 59%. It also gave an IC50 (M14) of 440 nM, a GI50 (M14; read-out: GI50) of 442 nM and a CC50 (M14; [9]) of 93.9 nM. The TGI (M14; read-out: TGI) was 2160 nM, the GI50 (M14; read-out: pGI50 (converted)) was 447 nM and the CC50 (M14; [10]) was 9330 nM. It also gave a TGI (M14; read-out: pTGI (converted)) of 2140 nM, a growth at 1 µM (MOLT-4) of 10% and a growth at 100 µM (CCRF-CEM) of -29%. It also gave a growth at 0.1 µM (HL-60(TB)) of 88%, a growth at 100 µM (HCC 2998) of -70% and a growth at 1 µM (RXF 393 [1]) of 50%. The IC50 (SR) was 450 nM, the GI50 (SR; read-out: GI50) was 452 nM and the CC50 (SR; [9]) was greater than 100000 nM. It also gave a TGI (SR; read-out: TGI) of 3310 nM, a GI50 (SR; read-out: pGI50 (converted)) of 447 nM and a CC50 (SR; [10]) greater than 100000 nM. For the same compound, the TGI (SR; read-out: pTGI (converted)) was 3310 nM, the growth at 0.01 µM (786-0 [2]) was 96% and the IC50 (786-0 [3]) was 570 nM. It also gave a GI50 (786-0 [3]; read-out: GI50) of 558 nM, a CC50 (786-0 [3]; [9]) of 63.1 nM and a TGI (786-0 [3]; read-out: TGI) of 2170 nM. For the same compound, the GI50 (786-0 [3]; read-out: pGI50 (converted)) was 562 nM, the CC50 (786-0 [3]; [10]) was 6310 nM and the TGI (786-0 [3]; read-out: pTGI (converted)) was 2190 nM. For the same compound, the IC50 (NCI-H460) was 380 nM, the GI50 (NCI-H460; read-out: GI50) was 377 nM and the TGI (NCI-H460; read-out: TGI) was 1760 nM. For the same compound, the GI50 (NCI-H460; read-out: pGI50 (converted)) was 380 nM, the CC50 (NCI-H460; [10]) was 17400 nM and the TGI (NCI-H460; read-out: pTGI (converted)) was 1780 nM. It also gave a growth at 0.01 µM (MDA-MB-468) of 97%, a growth at 0.01 µM (BT-549 [4]) of 94% and a growth at 0.01 µM (SW-620) of 98%. For the same compound, the growth at 1 µM (MCF7) was 21%, the IC50 (A498 [5]) was 390 nM and the GI50 (A498 [5]; read-out: GI50) was 350 nM. It also gave a CC50 (A498 [5]; [9]) of 33.4 nM, a TGI (A498 [5]; read-out: TGI) of 3590 nM and a GI50 (A498 [5]; read-out: pGI50 (converted)) of 389 nM. For the same compound, the CC50 (A498 [5]; [10]) was 33100 nM, the TGI (A498 [5]; read-out: pTGI (converted)) was 3630 nM and the growth at 1 µM (ACHN) was 17%. The growth at 0.1 µM (A498 [6]) was 69%, the growth at 1 µM (HCT-116) was 7% and the IC50 (IGROV-1) was 570 nM. The GI50 (IGROV-1; read-out: GI50) was 572 nM, the CC50 (IGROV-1; [9]) was greater than 100000 nM and the TGI (IGROV-1; read-out: TGI) was 12600 nM. The GI50 (IGROV-1; read-out: pGI50 (converted)) was 575 nM, the CC50 (IGROV-1; [10]) was greater than 100000 nM and the TGI (IGROV-1; read-out: pTGI (converted)) was 12600 nM. The growth at 0.1 µM (RXF 393 [7]) was 101%, the growth at 1 µM (BT-549 [8]) was 54% and the growth at 100 µM (SN12C) was -61%. The IC50 (NCI/ADR-RES) was 820 nM, the GI50 (NCI/ADR-RES; read-out: GI50) was 815 nM and the CC50 (NCI/ADR-RES; [9]) was greater than 100000 nM. The TGI (NCI/ADR-RES; read-out: TGI) was 9980 nM, the GI50 (NCI/ADR-RES; read-out: pGI50 (converted)) was 813 nM and the CC50 (NCI/ADR-RES; [10]) was greater than 100000 nM. For the same compound, the TGI (NCI/ADR-RES; read-out: pTGI (converted)) was 10000 nM and the growth at 1 µM (RPMI-8226) was -12%.

— ChEMBL document CHEMBL4308841, “Synthesis, in vitro antiproliferative activity, and kinase inhibitory effects of pyrazole-containing diarylureas and diarylamides” (Eur J Med Chem, 2018)
